Experimental data taken from patent US5254579A, “N-(5-thioxo-L-prolyl)-L-cysteine, derivatives thereof, processes for the preparation thereof and pharmaceutical compositions containing them” (Poli Industria Chimica S.p.A., priority 1991, dated 1993).
Where a SMILES comes first, the peptide text is derived from it. [ ]: non-standard residue; d: D form. pGlu = O=C1CC[C@@H](C(=O)O)N1

Legend:
[1] = In vitro antioxidant activity (DPPH test); assay type: biochemical
Description: The antioxidant (radical-scavenger) activity was studied by means of the DPPH in vitro test and with the paracetamol in vivo test.

[2] = test system: elimination of phenol red from the respiratory fluid; experiment: Mucosecretolytic activity (phenol red test in the mouse); assay type: in vivo; conditions: 100 mg/kg os; for Mean secretion (total μg) (mean ± S.E.): controls 2.73 ± 0.18, **p <0.01 Dunnett's "t" test
[3] = test system: paracetamol acute toxicity; experiment: In vivo antioxidant activity (paracetamol test); set-up: species or system Male Crl: CD-1 (ICR) BR mice; conditions: 100 mg/kg os 30 minutes before and 5 hours after paracetamol 1000 mg/kg i.p., 6 days; for Mortality (%): controls 90%
Method: The in vivo antioxidant (radical scavenger) activity was evidenced by means of the protection test against paracetamol acute toxicity. Male Crl: CD-1 (ICR) BR mice, weighing 25-30 g, were treated intraperitoneally with 1000 mg/kg (1 ml/kg) of paracetamol dissolved in 20% DMF in water immediately before the administration.
In vivo antioxidant activity (paracetamol test)

[4] = known from EP-A-332,946; in words; cited from earlier work

SMILES | Variat. (%) of absorbancies ([1]; 5.10^-5 M, 50 µM) [%] | Variat. (%) of absorbancies ([1]; 10^-4 M, 100 µM) [%] | Variat. (%) of absorbancies ([1]; 10^-5 M, 10 µM) [%] | Variat. (%) of mean secretion vs controls [2] | Mean secretion (total μg) (mean ± S.E.) [2] [µg] | Mortality, Variat. vs controls (%) [3] [%] | Mortality (%) [3] [%] | anticataractogenic activity [4]
COC(=O)[C@H](CS)NC(=O)[C@@H]1CCC(=O)N1 [Ic, N-(5-oxo-L-prolyl)-L-cysteine methyl ester] ([pGlu]-Cys-OMe) | -49.1 | -82.7 | -10.4 | +143.2% | 6.64 ± 1.00 | 45.4 | 50 | 
COC(=O)[C@H](CS)NC(=O)[C@@H]1CCC(=S)N1 [Id, N-(5-thioxo-L-prolyl)-L-cysteine methyl ester] | -51.8 | -79.1 | -14.3 | +97.4% | 5.39 ± 0.59 | 45.4 | 50 | 
O=C(O)[C@H](CS)NC(=O)[C@@H]1CCC(=S)N1 [Ie, N-(5-thioxo-L-prolyl)-L-cysteine] | -51.8 | -83.1 | -14.3 | +112.8% | 5.81 ± 0.62 | 66.7 | 30 | 
O=C1O[C@H]([C@@H](O)CO)C(O)=C1O [L-ascorbic acid] | -49.5 | -86.0 | -17.6 |  |  |  |  | 
N[C@@H](CS)C(=O)O [L-cysteine] | -56.5 | -83.7 | -10.9 |  |  |  |  | 
O=C1CC[C@@H](C(=O)N[C@@H](CS)C(=O)O)N1 [N-(5-oxo-L-prolyl)-L-cysteine] ([pGlu]-Cys-OH) | -49.6 | -88.1 | -29.6 | +92.7% | 5.26 ± 0.25 | 66.7 | 30 | known to have anticataractogenic activity
CC(=O)N[C@@H](CS)C(=O)O [N-acetyl-L-cysteine] | -47.9 | -86.3 | -10.4 | +61.9% | 4.42 ± 0.83 | 45.4 | 50 | 
